Experimental data from patent publication US5561117A, “Bridged bis-aryl carbinol derivatives, compositions and methods of use” (Schering Corporation, priority 1994, dated 1996).

Columns and labels:
[1] = system: PAF-induced platelet aggregation (human platelets); assay: In vitro platelet aggregation assay: inhibition of PAF-induced aggregation in platelet-rich plasma; format: cell-based; settings: PAF-induced aggregation of human PRP, 2 min preincubation, 37° C., PAF 1-5×10^-8 M, read-out: PAF Antagonism (in vitro) IC50
Protocol: A. In Vitro Studies--Platelet Aggregation Assay
Platelet-activating factor (PAF) causes aggregation of platelets by a receptor-mediated mechanism. Therefore, PAF-induced platelet aggregation provides a simple and convenient assay to screen compounds for PAF antagonism.
Human blood (50 ml) was collected from healthy male donors in an anticoagulant solution (5 ml) containing sodium citrate (3.8%) and dextrose (2%). Blood was centriguged at 110×g for 15 min. and the supernatant platelet-rich plasma (PRP) carefully transferred into a polypropylene tube. Platelet-poor-plasma (PPP) was prepared by centrifuging PRP at 12,000×g for 2 min. (Beckman Microfuge B). PRP was used within 3 hr. of drawing the blood.
PAF was dissolved in chloroform:methanol (1:1, v/v) at a concentration of 2 mg/ml and stored at -70° C. An aliquot of this solution was transferred to a polypropylene tube and dried under a flow of nitrogen gas. To the dried sample was added Hepes-saline-BSA (BSA=bovine serum albumen) buffer (25 mM Hepes, pH 7.4, […], 0.7 mM MgCl2 and 0.1% BSA) to obtain a 1 mM solution and sonicated for 5 min. in a bath sonicator. This stock solution was further diluted to appropriate concentrations in Hepes-saline-BSA buffer. Collagen (Sigma) and adenosine diphosphate (ADP) (Sigma) were purchased as solutions. Test compounds were initially dissolved in dimethyl sulfoxide (DMSO) at a concentration of 50 mM and then further diluted in Hepes-saline-BSA buffer to achieve appropriate concentrations.
When an aggregating agent such as PAF is added to PRP, platelets aggregate. An aggregometer quantifies this aggregation by measuring and comparing light (infra-red) transmission through PPP and PRP. Aggregation assays were performed using a dual-channel aggregometer (Model 440, Chrono-Log Corp., Havertown, Pa.). PRP (0.45 ml) in aggregometer cuvettes was continually stirred (37° C.). Solutions (50 μL) of test compounds or vehicel were added to the PRP and, after incubation for 2 min., 10-15 μl aliquots of PAF solution were added to achieve a final concentration of 1-5×10^-8 M. In different experiments the aggreatory response was kept within a set limit by varying the concentration of PAF. Incubations were continued until the increase in light transmission reached a maximum (usually 2 min.). This increase in light transmission reflecting platlet aggregation is transmitted to a computer by the Chrono-Log model 810 AGGRO/LINK interface. The AGGRO/LINK calculates the slope of transmission change, thus providing the rate of aggregation. Values for inhibition were calculated by comparing rates of aggregation obtained in the absence and the presence of the compound. For each experiment, a standard PAF antagonist such as 8-chloro-6,11-dihydro-11-(1-acetyl-4-piperidylidene)-5H-benzo[5,6]cyclohepta[1,2-b]pyridine was used as a positive control. […]

[2] = system: histamine-induced bronchospasm; assay: Spasmogen-induced bronchospasm in guinea pigs, histamine challenge; format: in vivo, guinea pig (male Hartley); settings: dose 3 mpk, histamine 10 ug/kg i.v., inhibition of increase in inflation pressure vs control
[3] = system: PAF-induced bronchospasm; assay: Spasmogen-induced bronchospasm in guinea pigs, PAF challenge; format: in vivo, guinea pig (male Hartley); settings: dose 3 mpk, PAF 0.4 μg/kg i.v., inhibition of increase in inflation pressure vs control

Row | IC50 [1] [nM] | Structure (SMILES) | Agonist Bronchospasm (in Vivo)-oral, Histamine, % Inhibition [2] [%] | Agonist Bronchospasm (in Vivo)-oral, PAF, % Inhibition [3] [%]
1 | 5000 | O=C(c1cc[n+]([O-])cc1)N1CCC(C2(O)c3ccccc3Oc3cnccc32)CC1 (stereo not shown) [IA-1] |  | 
2 | 5000 | O=C(c1cc[n+]([O-])cc1)N1CCC(C2(O)c3ccccc3Oc3ccccc32)CC1 [IA-2] |  | 
3 | 2000 | O=C(c1cc[n+]([O-])cc1)N1CCC(C2(O)c3ccccc3Oc3cccnc32)CC1 (stereo not shown) [IA-3] | 0 | 97
4 | 800 | O=C(c1cc[n+]([O-])cc1)N1CCC(C2(O)c3ccccc3Oc3ncccc32)CC1 (stereo not shown) [IA-4] |  | 

Second part, the compound before the results:

Row | Structure (SMILES) | IC50 [1] [nM] | Agonist Bronchospasm (in Vivo)-oral, Histamine, % Inhibition [2] [%] | Agonist Bronchospasm (in Vivo)-oral, PAF, % Inhibition [3] [%]
5 | CN1c2ccccc2C(O)(C2CCN(C(=O)c3cc[n+]([O-])cc3)CC2)c2ccccc21 [IA-5] | 5000 |  | 7
6 | O=C(c1cc[n+]([O-])cc1)N1CCC(C2(O)c3ccccc3Sc3ccccc32)CC1 [IA-6] | 1500 |  | 20
7 | O=C(c1cc[n+]([O-])cc1)N1CCC(C2(O)c3ccccc3CCc3cccnc32)CC1 (stereo not shown) [IA-8] | 2000 |  | 25
8 | [O-][n+]1ccc(CN2CCC(C3(O)c4ccccc4Oc4cnccc43)CC2)cc1 (stereo not shown) [IA-9] | > 10000 |  | 
9 | [O-][n+]1ccc(CN2CCC(C3(O)c4ccccc4Oc4ccccc43)CC2)cc1 [IA-10] | 10000 |  | 
10 | [O-][n+]1ccc(CN2CCC(C3(O)c4ccccc4Oc4cccnc43)CC2)cc1 (stereo not shown) [IA-11] | 5000 |  | 
11 | [O-][n+]1ccc(CN2CCC(C3(O)c4ccccc4Oc4ncccc43)CC2)cc1 (stereo not shown) [IA-12] | 3000 | 0 | 42
12 | [O-][n+]1ccc(CN2CCC(C3(O)c4ccccc4Sc4ccccc43)CC2)cc1 [IA-14] | 1750 |  | 
